Measurements: patent US20240058308A1, “TREATMENT AND PREVENTION OF DRY MACULAR DEGENERATION” (The Regents of the University of Michigan, priority 2021, published 2024)

Columns and labels:
RPE from mouse eyecups = assay: Ex vivo mouse eyecup autophagy induction (LC3II/LC3I ratio); conditions: 24 hours
Description: FIG. 14. Effect of autophagy positive control Torin on RPE from mouse eyecups (DMSO as control). […] Mouse eyes were enucleated, the anterior segment vitreous, and retina were removed, leaving an eyecup with RPE/choroid exposed. […] RPE/Choroid eyecup was treated with 1 uM Torin1 in our previously established RPE cell culture media for 24 hours. n=4.
FIG. 15. Effect of Flubendazole on RPE from Mouse Eyecups (DMSO as control). Conditions with and without ammonium chloride (NH4Cl) help establish high autophagy flux rates. If true autophagy flux is happening, the LC3II/LC3I ratio should increase further upon addition of NH4Cl, as is the case here. DMSO− and FLBZ−, n=6, FLBZ+ and DMSO+ n=5. Flubendazole tested at 60 uM, lysates collected after 24 hours. Induction did occur in eyecups.
Given the inconsistent results with detecting autophagy induction using intravitreal injection of the positive control, Torin, experiments were conducted to determine whether the lack of responsiveness to intravitreal injections was a drug access issue or whether it was a species or animal vs. culture difference. Additional experiments utilized freshly isolated mouse eyecups with the retina removed to determine whether Torin (and FLBZ) induce autophagy in this context. […] The use of ammonium chloride in these experiments blocks lysosomal degradation.

ARPE-19 = assay: LC3 colocalization to UAM granules; type: cell-based, human; conditions: ARPE-19 treated with drug
Description: FIG. 5. Autophagy inducer FLBZ reduces accumulation of lipofuscin-like material. (A) Lipofuscin-like material, which we term undigestible autofluorescent material (UAM), accumulates in RPE after repeated feedings of photo-oxidized outer segments (oxOS). UAM granules (green). DAPI (blue). Phalloidin stain of F-actin outlining cell borders (pink). Scale bar: 10 μm. (B) Effects of FLBZ or Torin on UAM accumulation (left) and elimination (right). FLBZ or Torin is fed together with oxOS daily for 20 days in a month (left, n=5) or fed daily for 20 days in a month after completion of oxOS feedings to stimulate UAM accumulation (right, n=7). Unlike Torin, FLBZ both reduces UAM accumulation and increases UAM elimination. DMSO as vehicle control. U 673 AM normalized to DMSO condition. […] UAM (red). LC3 (green). DAPI (blue). Arrows indicate LC3 puncta surrounding a lipofuscin granule. Scale bar: 2 μm. (D) Effects of FLBZ on UAM granule size. Compared to vehicle (DMSO), FLBZ decreases UAM granule size both during oxOS feedings (left) and after UAM buildup has already occurred (right). n=40. ns p>0.05, *p<0.05, **p<0.01, ***p<0.001.
Human fetal eyes were obtained from Advanced Bioscience Resources (ABR, Alameda, California) and cultured [Ref. 43; incorporated by reference in its entirety]. ARPE-19 cells were cultured at passage 19 [Ref. 51; incorporated by reference in its entirety].

[1] = tested on: primary human fetal RPE (hfRPE) culture; assay: Autophagy flux assay with NH4Cl lysosomal alkalinization; type: cell-based; conditions: inducer 22.5 hours, then 25 mM NH4Cl for final 1.5 hours
Description: Cultures were exposed to compounds or vehicle (DMSO) for 24 hours. […] (C) Autophagy flux assays. After application of inducers or vehicle (DMSO) for 22.5 hours, 25 mM of NH4Cl, a lysosomal alkalizing agent, or H2O were added for a final 1.5 hours to inhibit autophagy flux.
Increases in both LC3 lipidation and autophagosome formation could result from downstream blockade of autophagy at the lysosome.

RPE of mouse eye = assay: Intravitreal injection in mouse eyes, autophagy by LC3II/LC3I ratio of lysates; type: in vivo; conditions: four concentrations up to 500 uM, multiple timepoints, DMSO in other eye
Description: Experiments were conducted during development of embodiments herein to assay for autophagy in the mouse eye. Experiments were conducted to measure autophagy by giving an intraperitoneal injection of leupeptin, followed by assaying for LC3 puncta in an RPE flatmount of a GFP-LC3 mouse. Background from GFP-LC3 debris deposited on the RPE when the retina was peeled off for the flat mount prevented signal detection. A biochemical assay was then employed for autophagy induction, measuring an increase in the lipidation of the autophagy core protein LC3 (lipidated LC3=LC3-II, unlipidated LC3=LC3-I, so higher LC3-II/LC3-I ratio indicates autophagy induction). Sufficient signal as obtained. […] Harvesting techniques were also optimized for collecting RPE from mouse eyes.
Experiments were conducted during development of embodiments herein to establish a positive control for autophagy induction. […] Autophagy induction was measured at 4 different concentrations of Torin (500 nm, 5 um, 50 um, 500 um) and at 5 different timepoints after injection (1 day, 3 days, 7 days, 14 days, 28 days). […] Nevertheless, the ability of intravitreal injections of FLBZ to induce autophagy in the RPE was assessed. In preparation for injecting FLBZ intravitreally into mice, solubility assays were performed and the maximum amount of FLBZ that can be injected without it crashing out of solution in the vitreous was determined. […]

[2] = tested on: primary human fetal RPE (hfRPE) culture; assay: Autophagy induction by LC3 puncta formation (immunocytochemistry); type: cell-based; conditions: 24 hours exposure
Description: Cell cultures were exposed to each putative autophagy inducer at a concentration indicated in Table 1 for 24 hours, lysed with 36 μL of SDS sample buffer with β-mercaptoethanol, with 15 μg of lysate loaded on a 4-15% gradient gel followed by transfer to a PVDF membrane. Blots were incubated with 1:1000 of LC3A/B antibody (Cell Signaling Technology; #4108s, RRID:AB_2137703) overnight. Quantifying LC3-II/LC3-I ratio is a well-accepted method for det 306 ermining autophagy induction [Ref. 44; incorporated by reference in its entirety], and this ratio was quantified in a non-saturated, linear range using the Azure c500 Imaging System (Azure Biosystems, Dublin, CA, USA) and a combination of AzureSpot and ImageJ software. The data in FIG. 2A are not normalized, whereas the data in FIGS. 2b and 1c are normalized to the average combined value of the vehicle and drug groups within each experimental repeat. The extreme pigmentation of human fetal cultures, combined with the destruction of the LC3 epitope with melanin bleaching protocols, makes detection of LC3 by microscopy in hfRPE difficult. A range of LC3 staining and puncta quantification protocols specifically adapted to pigmented hfRPE culture were employed [Ref. 43; incorporated by reference in its entirety]. At least five fields of view were randomly chosen and analyzed per experimental replicate for LC3 immunocytochemistry.
Autophagy induction was confirmed by assaying the formation of LC3-positive puncta (autophagosomes) by immunocytochemistry [Ref. 44; incorporated by reference in its entirety]. Puncta formation was quantified in automated/unbiased fashion using a customized macro in the Fiji/ImageJ platform [Ref. 43; incorporated by reference in its entirety].
Autophagy induction was measured by LC3 puncta on immunocytochemistry (standard method for autophagy induction) (FIG. 19). Drugs applied to primary human RPE culture for 24 hours.

## COC(=O)Nc1nc2cc(C(=O)c3ccc(F)cc3)ccc2[nH]1 [FLBZ, Flubendazole]
RPE from mouse eyecups; mouse RPE/choroid eyecup, Torin 1-5 uM, FLBZ 12-60 uM
  Autophagy induction in eyecups (LC3II/LC3I ratio): induces autophagy well
RPE from mouse eyecups; mouse eyecups, FLBZ 60 uM
  Autophagy flux in eyecups: LC3-II/LC3-I ratio with vs without ammonium chloride: higher LC3-II/LC3-I ratio with ammonium chloride than without ammonium chloride
ARPE-19
  LC3 colocalization to UAM granules: LC3 colocalization to UAM granules
[1]
  Autophagy flux: LC3-II/LC3-I ratio after NH4Cl: induces autophagy flux
RPE of mouse eye
  Autophagy induction in RPE after intravitreal injection (LC3II/LC3I ratio): no convincing evidence for autophagy induction
[2]
  LC3 puncta formation (autophagy induction): induced autophagy
